Values quoted from earlier work, collected in patent US20120245518A1, “PHARMACEUTICAL COMPOSITION FOR THE TREATMENT OF BLADDER DISORDERS” (Ritcher Gedeon NYRT., priority 2009, published 2012).

Tested on: matrix metalloproteinases, particularly the MMP-9

## sodium hyaluronate
  inhibitory effect on matrix metalloproteinases, particularly MMP-9: does not show the latter effect
